Test results from patent US20190225643A1, “NOVEL NUCLEOSIDE ANALOGS AND USE THEREOF IN THERAPEUTIC TREATMENT” (CORNELL UNIVERSITY, priority 2016, published 2019).

How the values were obtained:
[1] = 200 mg/kg for 9 days; cited from earlier work
U266 (MM) = experiment: cells; format: cell-based; details: Homo sapiens, U-266, 48 h, read-out: LC50 U266 (MM) in nM
Procedure: (§1) Cell viability assays were performed by plating log-phase cells in RPMI complete media with 20% FBS at 1*10^5 cells/mL, with concentrations of 6-ETI or phospho-6-ETI ranging from 0.1 nM to 100 μM. ATP content at 24, 48 and 72 hours post-treatment was measured by the CellTiter-Glo kit (Promega, Madison, Wis.), or by Trypan blue assay as indicated. The LC50 for 6-ETI in each cell line was determined using online EC50 software at changbioscience.com or using GraphPad Prism to determine the LC50 for 6-ETI, phospho-6-ETI and nucleoside analogs in MM cell lines and primary MM patient samples.

IBL-1 (EBV+ DLBCL) = experiment: cells; format: cell-based; details: Homo sapiens, 48 h, read-out: LC50 IBL-1 (DLBCL)
Procedure: as §1

BC3 (PEL) = experiment: cells; format: cell-based; details: Homo sapiens; 48 hours, CellTiter-Glo; read-out: LC50 BC3 (PEL)
Procedure: as §1

KSHV+ PEL cell lines = experiment: CellTiter-Glo viability assay, KSHV+ cell line panel; format: cell-based, human
Procedure: as §1
KSHV+ primary effusion lymphoma (PEL) cell lines (BC1, BC2, BC3, BC5, BCBL1, BCP1), EBV+ lymphoblastoid cell line LCL9001, EBI+ diffuse large B-cell lymphomas (DLBCL) with immunoblastic features (IBL1, IBL4), and EBV+ effusion DLBCL BCKN1 were cultured in RPMI-1640 medium (Invitrogen) supplemented with 50 μg/mL Gentamicin (Sigma-Aldrich) and 10% or 20% heat-inactivated fetal bovine serum, respectively. Uninfected DLBCL cell lines (Ly2, Ly7) were cultured in IMDM (Invitrogen) supplemented with 50 μg/mL Gentamicin and 10% FBS. Multiple myeloma (MM) cell lines U266 and MM1S were cultured in RPMI supplemented with 15%FBS and 50 μg/mL Gentamicin, while JJN3 was cultured in 40% IMDM/40% DMEM plus 20% FBS supplemented with 50 μg/mL Gentamicin. Hodgkin's lymphoma (L428, L1236) and Burkitt's lymphoma cell lines (BJAB, Namalwa)were maintained in RPMI-1640 supplemented with Gentamicin and 10% FBS. All of the PEL cell lines and IBL1 were established in our laboratory from lymphomatous effusions except BCBL1, which was obtained from the AIDS and Cancer Specimen Bank. Burkitt lymphoma cell lines Namalwa and BJAB as well as the multiple myeloma cell line U266 were obtained from the American Type Culture Collection (ATCC). JJN3 cell line and Hodgkin cell lines (L428, L1236) were obtained from DSMZ. DLBCL cell lines LY2 and LY7 were provided by Riccardo Dana-Rivera (Columbia University), MM1S cell line was provided by Dr. Giorgio Inghiraini lab at Weill Cornell Medicine. […]

[2] = tested on: Primary CD138+ human myeloma cells; experiment: Ex vivo viability of primary multiple myeloma samples; format: cell-based; details: 24 hours
Procedure: as §1
Bone marrow specimens were obtained from multiple myeloma patients at the New York-Presbyterian Hospital under informed consent as part of an Institutional Review Board-approved study in accordance with the Declaration of Helsinki. Primary CD138^+ human myelorna cells were isolated by Ficoll-Hypaque density gradient centrifugation. The CD138^+ bone marrow myeloma cells were then enriched from this fraction to >95% purity using an automated MACS CD138 MicroBeads system (Miltenyi Biotechnology, Inc., Auburn, Calif.). […] PBLs were harvested from normal blood using Ficoll-Paque (Sigma-Aldrich) as described previously. Cells were plated in RPMI-1640 supplemented with 20% FBS.

[3] = tested on: p65/p50 binding to the NF-κB response element in BC3 PEL cell line; experiment: EMSA of NF-κB binding in BC3 cells; format: cell-based, human
Procedure: BC3 or LCL9001 cells were plated at 5*10^5 cells/ml, and treated with the hit compounds at 25 μM or with NSC39368 at 5, 10, 25 and 50 μM for 24 hours. Nuclear extracts were obtained as previously described (Keller S. A. et al., Blood. 2000 96(7):2537-42), and electrophoretic mobility shift assays (EMSAs) were performed using an NF-κB-specific oligonucleotide probe.

[4] = tested on: CAG-luc multiple myeloma xenograft; experiment: Disseminated multiple myeloma xenograft model; format: in vivo, mouse
Procedure: For the disseminated multiple myeloma xenograft model, CAG cells were kindly provided by Dr. Malcolm Moore lab at MSKCC. 1×10^7 of CAG cells stably expressing the HSV-TK-eGFP-luciferase fusion protein were injected intravenously into NOD/SCID (NOD/LTSZPrko/J, the Jackson Laboratory Stock# 001303). Eight days after tumor induction, mice were randomized into control and treated cohorts and treated intraperitoneally with either PBS 0.05% tween 80 (vehicle) or 200 mg/kg of 6-ETI daily for 9 days. Tumor mass or bioluminescence (photons/s/cm^2/steradian) was evaluated by imaging the mice using IVIS Imaging system. Statistical analysis was done using a two-tailed, unpaired Student's t-test using GraphPad prism.

[5] = tested on: 6-ETI-resistant BC3 clones and xenograft cell lines 2-3 low and 3-5 low; experiment: Viability assay in 6-ETI-resistant BC3-derived cell lines; format: cell-based
Procedure: To generate 6-ETI resistant clones, BC3 cells were plated in RPMI-1640 with 50 μg/mL Gentamicin and 20% FBS under 6-ETI selection in multiple 96-well plates at 1*10^5 cells/mL. Selection was begun at 15 nM, 30 nM, or 60 nM 6-ETI. Cells were split every three days, with the dose of 6-ETI doubled at least 1×/week. Selection continued until a few clonal populations remained, after which the clones were expanded into fresh plates under selection with 10 μM 6-ETI. Clones retrieved were designated NSCE-1, NSCE-2, NSCE-3, NSCE-4, NSCE-5, NSCE-6, NSCE-7, NSCE-8, in chronological order of selection from the original plates.
The ascites from these mice were harvested ex vivo, and following Ficoll extraction, placed in culture in RPMI-1640 with 10% FBS.

**Q.** For `CCSc1ncnc2c1ncn2[C@@H]1O[C@H](CO)C(O)[C@@H]1O` (stereo partly drawn) [Compound 6-ETI, 6-ethylthioinosine], which reported toxicities [1] is on record?
**A.** no reported toxicities

**Q.** And the CC50 (U266 (MM))?
**A.** 437 nM

**Q.** And the CC50 (IBL-1 (EBV+ DLBCL))?
**A.** > 100000 nM

**Q.** What about the CC50 (BC3 (PEL)) of the same compound?
**A.** 49.8 nM

**Q.** And the CC50 (KSHV+ PEL cell lines; Homo sapiens, 48 h, read-out: LC50)?
**A.** 30 to 435 nM

**Q.** And the “average fold-difference in sensitivity” value (KSHV+ PEL cell lines; KSHV- versus KSHV+ cell lines)?
**A.** ~275 X

**Q.** And the LC95 (KSHV+ PEL cell lines; PEL cell lines)?
**A.** ~1000 nM

**Q.** What about the sensitivity ex vivo [2] of the same compound?
**A.** showed sensitivity

**Q.** And the “inhibition of active heterodimer p65/p50 binding to the NF-κB response element” value ([3]; BC3, 24 hours)?
**A.** effectively inhibited

**Q.** And the “doses effective in inhibiting NF-κB in PELs” value ([3]; PEL cells)?
**A.** 10 to 50 µM

**Q.** What about the “tumor burden (bioluminescent signal)” value ([4]; 200 mg/kg/day i.p. for 9 days) of the same compound?
**A.** significant reduction in tumor burden

**Q.** What about the weight loss ([4]; 200 mg/kg/day i.p. for 9 days) of the same compound?
**A.** without any weight loss

**Q.** And the overall survival ([4]; 200 mg/kg/day, P<0.005)?
**A.** significantly prolonged

**Q.** What about the CC50 ([5]; Homo sapiens, xenograft cell lines 2-3 low and 3-5 low after selection with 10 μM 6-ETI, read-out: LC50 (the source's name)) of the same compound?
**A.** > 100000 nM

**Q.** What about the “resistance of selected clones” value ([5]; clones NSCE-1, -2, -3, -6, -7, -8) of the same compound?
**A.** fully resistant
